From the NIST ThermoML archive (doi:10.1021/acs.jced.7b01125)

Assay: xn = mol fraction of the nth substance listed
Conditions: Gas, Buoyancy - hydrostatic balance with magnetic suspension - one sinker

[HH] [hydrogen] + C
Conditions	mass density [kg/m3]
240.07 K, 999 kPa, x2 = 0.9	7.556
240.07 K, 1000 kPa, x2 = 0.4997	4.558
240.07 K, 1999 kPa, x2 = 0.9	15.591
240.07 K, 2000 kPa, x2 = 0.4997	9.174
240.07 K, 3001 kPa, x2 = 0.9	24.162
240.07 K, 3002 kPa, x2 = 0.4997	13.857
240.07 K, 4001 kPa, x2 = 0.9	33.3
240.07 K, 4003 kPa, x2 = 0.4997	18.584
240.07 K, 5000 kPa, x2 = 0.4997	23.326
240.07 K, 5001 kPa, x2 = 0.9	43.067
240.07 K, 6003 kPa, x2 = 0.4997	28.124
240.07 K, 6003 kPa, x2 = 0.9	53.504
240.07 K, 7000 kPa, x2 = 0.4997	32.918
240.07 K, 7005 kPa, x2 = 0.9	64.62
240.07 K, 8003 kPa, x2 = 0.4997	37.747
240.07 K, 9002 kPa, x2 = 0.4997	42.553
240.07 K, 10006 kPa, x2 = 0.4997	47.368
240.07 K, 11006 kPa, x2 = 0.4997	52.137
240.07 K, 11011 kPa, x2 = 0.9499	128.048
240.07 K, 12005 kPa, x2 = 0.4997	56.857
240.07 K, 12014 kPa, x2 = 0.9499	142.433
240.07 K, 13003 kPa, x2 = 0.4997	61.522
240.07 K, 13016 kPa, x2 = 0.9499	155.953
240.07 K, 14011 kPa, x2 = 0.4997	66.173
240.07 K, 14016 kPa, x2 = 0.9499	168.365
240.07 K, 15002 kPa, x2 = 0.4997	70.674
240.07 K, 15021 kPa, x2 = 0.9499	179.661
240.07 K, 16013 kPa, x2 = 0.4997	75.179
240.07 K, 16020 kPa, x2 = 0.9499	189.762
240.07 K, 17008 kPa, x2 = 0.4997	79.535
240.07 K, 17018 kPa, x2 = 0.9	179.188
240.07 K, 17021 kPa, x2 = 0.9499	198.87
240.07 K, 18016 kPa, x2 = 0.4997	83.857
240.07 K, 18016 kPa, x2 = 0.9499	207.026
240.07 K, 18030 kPa, x2 = 0.9	187.542
240.07 K, 19008 kPa, x2 = 0.4997	88.009
240.07 K, 19013 kPa, x2 = 0.9499	214.425
240.07 K, 19032 kPa, x2 = 0.9	195.115
240.07 K, 19589 kPa, x2 = 0.9	199.054
240.07 K, 19703 kPa, x2 = 0.4997	90.858
240.07 K, 19891 kPa, x2 = 0.9499	220.394
240.08 K, 999 kPa, x2 = 0.9499	7.937
240.08 K, 1998 kPa, x2 = 0.9499	16.447
240.08 K, 3000 kPa, x2 = 0.9499	25.62
240.08 K, 3999 kPa, x2 = 0.9499	35.505
240.08 K, 5004 kPa, x2 = 0.9499	46.287
240.08 K, 6000 kPa, x2 = 0.9499	57.87
240.08 K, 7002 kPa, x2 = 0.9499	70.478
240.08 K, 8004 kPa, x2 = 0.9499	84.026
240.08 K, 8008 kPa, x2 = 0.9	76.371
240.08 K, 9003 kPa, x2 = 0.9499	98.317
240.08 K, 9004 kPa, x2 = 0.9	88.565
240.08 K, 10004 kPa, x2 = 0.9	101.131
240.08 K, 10007 kPa, x2 = 0.9499	113.159
240.08 K, 11012 kPa, x2 = 0.9	113.893
240.08 K, 12006 kPa, x2 = 0.9	126.282
240.08 K, 13016 kPa, x2 = 0.9	138.41
240.08 K, 14006 kPa, x2 = 0.9	149.671
240.08 K, 15020 kPa, x2 = 0.9	160.417
240.08 K, 16024 kPa, x2 = 0.9	170.25
250.03 K, 1001 kPa, x2 = 0.4997	4.372
250.03 K, 2000 kPa, x2 = 0.4997	8.784
250.03 K, 2990 kPa, x2 = 0.4997	13.19
250.03 K, 4000 kPa, x2 = 0.4997	17.721
250.03 K, 5000 kPa, x2 = 0.4997	22.235
250.03 K, 7001 kPa, x2 = 0.4997	31.315
250.03 K, 8002 kPa, x2 = 0.4997	35.861
250.04 K, 999 kPa, x2 = 0.9499	7.587
250.04 K, 1999 kPa, x2 = 0.9499	15.652
250.04 K, 3000 kPa, x2 = 0.9	22.884
250.04 K, 3002 kPa, x2 = 0.9499	24.252
250.04 K, 4000 kPa, x2 = 0.9	31.364
250.04 K, 4006 kPa, x2 = 0.9499	33.422
250.04 K, 5002 kPa, x2 = 0.9	40.328
250.04 K, 5005 kPa, x2 = 0.9499	43.167
250.04 K, 5999 kPa, x2 = 0.4997	26.765
250.04 K, 6001 kPa, x2 = 0.9499	53.515
250.04 K, 6004 kPa, x2 = 0.9	49.775
250.04 K, 7002 kPa, x2 = 0.9	59.655
250.04 K, 7002 kPa, x2 = 0.9499	64.575
250.04 K, 8004 kPa, x2 = 0.9	70.009
250.04 K, 9002 kPa, x2 = 0.4997	40.398
250.04 K, 9006 kPa, x2 = 0.9499	88.515
250.04 K, 9011 kPa, x2 = 0.9	80.795
250.04 K, 10001 kPa, x2 = 0.4997	44.91
250.04 K, 10014 kPa, x2 = 0.9	91.789
250.04 K, 11004 kPa, x2 = 0.4997	49.405
250.04 K, 11010 kPa, x2 = 0.9	102.827
250.04 K, 12004 kPa, x2 = 0.4997	53.836
250.04 K, 13005 kPa, x2 = 0.4997	58.27
250.04 K, 14003 kPa, x2 = 0.4997	62.615
250.04 K, 15009 kPa, x2 = 0.4997	66.921
250.04 K, 16007 kPa, x2 = 0.4997	71.14
250.04 K, 17008 kPa, x2 = 0.4997	75.293
250.04 K, 18013 kPa, x2 = 0.4997	79.385
250.04 K, 19258 kPa, x2 = 0.4997	84.34
250.05 K, 1000 kPa, x2 = 0.9	7.23
